Results as given in PubChem BioAssay (NCI).
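Each compound was tested at five concentrations against cells in 96-well plates for 48 hours. GI50 is the concentration that inhibits growth by half. TGI: concentration producing complete growth inhibition.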

Legend:
Assay in all cases: NCI anticancer screen, dose series, 48 h
SK-MEL-5 melanoma = test system: SK-MEL-5 melanoma
U251 CNS = test system: U251 CNS
SF-539 CNS = test system: SF-539 CNS
SK-MEL-28 melanoma = test system: SK-MEL-28 melanoma
NCI-H23 lung = test system: NCI-H23 lung
SNB-19 CNS = test system: SNB-19 CNS
UO-31 renal = test system: UO-31 renal
OVCAR-4 ovarian = test system: OVCAR-4 ovarian
786-0 renal = test system: 786-0 renal
NCI/ADR-RES ovarian = test system: NCI/ADR-RES ovarian

SMILES	TGI (SK-MEL-5 melanoma)	TGI (U251 CNS)	TGI (SF-539 CNS)	TGI (SK-MEL-28 melanoma)	TGI (NCI-H23 lung)	TGI (SNB-19 CNS)	TGI (UO-31 renal)	TGI (OVCAR-4 ovarian)	TGI (786-0 renal)	GI50 (SK-MEL-5 melanoma)	GI50 (U251 CNS)	GI50 (SF-539 CNS)	GI50 (SK-MEL-28 melanoma)	GI50 (NCI-H23 lung)	GI50 (SNB-19 CNS)	GI50 (UO-31 renal)	GI50 (NCI/ADR-RES ovarian)	TGI (NCI/ADR-RES ovarian)	GI50 (786-0 renal)	GI50 (OVCAR-4 ovarian)
CCCCCCCCCC(=O)Oc1cccc2onc(C)c12	> 100 µM	> 100 µM	> 100 µM	> 100 µM	> 100 µM	> 100 µM	> 100 µM	> 100 µM	> 100 µM											
CCCn1cnc2c(SCc3ccccc3)nc(N)nc21	> 100 µM	> 100 µM	> 100 µM	> 100 µM	> 100 µM	> 100 µM	> 100 µM		> 100 µM	21.2 µM	41.4 µM	> 100 µM	> 100 µM	> 100 µM	> 100 µM	67.7 µM	63.2 µM	> 100 µM	> 100 µM	
C=C(CNCCc1ccc(O)cc1)[C@@H]1CC[C@]2(CO)CC[C@]3(C)[C@H](CC[C@@H]4[C@@]5(C)CCC(N)C(C)(C)[C@@H]5CC[C@]43C)[C@@H]12 (stereo not given in full)	3.09 µM	2.12 µM	2.94 µM	3.28 µM		2.53 µM	2.76 µM	2.95 µM	3 µM	1.69 µM	0.917 µM	1.56 µM	1.76 µM		1.22 µM	1.42 µM			1.52 µM	1.44 µM
O=[N+]([O-])C1C2C=CC(C2)[C@H]1c1ccc(Cl)cc1Cl (stereo not given in full)	24.7 µM	> 100 µM	> 100 µM	> 100 µM	> 100 µM	> 100 µM	67.2 µM		> 100 µM											
NS(=O)(=O)c1ccc(NC(=O)c2cccn3c(=O)c4ccccc4nc23)cc1	> 100 µM	> 100 µM	> 100 µM	> 100 µM	> 100 µM	> 100 µM	> 100 µM	> 100 µM	> 100 µM											
COc1cc2cccc(N=Cc3c(Br)ccc(OC)c3OC(C)C)c2cc1OC	> 100 µM	> 100 µM	> 100 µM	> 100 µM	> 100 µM	> 100 µM	> 100 µM	> 100 µM	69.9 µM											
CC(=O)OCCC(O[Si](c1ccccc1)(c1ccccc1)C(C)(C)C)C(C)(C)O (stereo not given)	> 100 µM	> 100 µM	63.8 µM	> 100 µM	68.7 µM	> 100 µM	68.7 µM	> 100 µM	77.2 µM											
NC(=O)c1cc(I)ccc1NC(=O)COc1ccccc1	> 100 µM	10.8 µM	1.58 µM	> 100 µM	22.4 µM	44.1 µM	> 100 µM		18.8 µM	0.533 µM	0.365 µM	0.29 µM	2.57 µM	0.822 µM	0.699 µM	4.27 µM	0.329 µM	5.43 µM	0.957 µM	
C=CC1=CC(C)C[C@]1(O)C(=O)OC (stereo not given in full)	> 100 µM		> 100 µM								> 100 µM		> 100 µM	> 100 µM	> 100 µM	> 100 µM			> 100 µM	> 100 µM
Cc1ccccc1NC(=O)C(=O)CC(=O)c1ccc([N+](=O)[O-])cc1		> 100 µM	> 100 µM	> 100 µM	> 100 µM	> 100 µM	> 100 µM	> 100 µM	> 100 µM											
C/C(=N/NC(=O)CC(=O)N(C(=O)c1ccccc1Cl)c1ccc(C)cc1)c1cc2ccccc2oc1=O	> 100 µM	> 100 µM	> 100 µM	> 100 µM	> 100 µM	> 100 µM	> 100 µM	> 100 µM	> 100 µM											
CC12OC(C(=O)C13CCC3)C1C(=O)c3ccccc3C(=O)C12 (stereo not given)		> 100 µM	> 100 µM	> 100 µM	> 100 µM	> 100 µM	> 100 µM		> 100 µM		55 µM	> 100 µM	> 100 µM	38 µM	> 100 µM	> 100 µM	> 100 µM	> 100 µM	> 100 µM	
O=C(O)[C@@H]1CCCC[C@@H]1C(=O)N(C1CCCCC1)C1CCCCC1	> 100 µM	> 100 µM	> 100 µM	> 100 µM	> 100 µM		> 100 µM	> 100 µM	> 100 µM											
O=C(/C=C/c1cn(-c2ccccc2)nc1-c1ccc([N+](=O)[O-])cc1)c1ccc(Cl)cc1	> 100 µM				> 100 µM	27 µM			55.3 µM			2.19 µM		3.67 µM	4.12 µM		3.86 µM	> 100 µM	3.94 µM	
C/C(=N/O)c1ccc2c(c1)C(=NO)c1cc(/C(C)=N/O)ccc1-2	28.5 µM	28.6 µM	31.4 µM	31.7 µM	35.3 µM	26.8 µM	28.3 µM	30.5 µM	42.3 µM											
CC(C)(C)c1cc(CCC(=O)Nc2ccc(Cl)cc2Cl)nc(N)n1	> 100 µM	> 100 µM	> 100 µM	> 100 µM	> 100 µM	> 100 µM	> 100 µM	> 100 µM	> 100 µM											
COc1ccc2[nH]c3c(=O)[nH]ncc3c2c1	> 100 µM	> 100 µM	> 100 µM	> 100 µM	> 100 µM	> 100 µM	> 100 µM	> 100 µM	> 100 µM											
CCOC(=O)C[C@@]12CCCNC1(C)CCc1ccccc12 (stereo not given in full)	> 100 µM	> 100 µM	> 100 µM			> 100 µM	> 100 µM		> 100 µM											
Cc1ccc(-n2c3c(c4c(CN5CCOCC5)c(O)ccc42)CCc2ccccc2C3=O)cc1	> 100 µM	> 100 µM	> 100 µM		> 100 µM	> 100 µM	> 100 µM		> 100 µM	76 µM	> 100 µM	> 100 µM		> 100 µM	> 100 µM	> 100 µM	39.1 µM	> 100 µM	91.5 µM	
